Columns and labels:
S. aureus 209PJC [1] = assay: Antibacterial activity test (MIC); assay type: cell-based; settings: Mueller-Hinton Broth, 37° C., 20 to 24 hours
Outline: (§1)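 Broth dilution MIC per Japanese Society of Chemotherapy method, in Mueller-Hinton Broth with inoculum of 10^5/ml from 16–20 h cultures at 37° C. Compound (methanol-dissolved) tested at 100 μg/ml and 2^n-fold (n=−10 to 1) twofold steps; MIC expressed in μg/ml.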

E. coli NIHJ JC-2 [2] = assay: Antibacterial activity test (MIC); assay type: cell-based; settings: Mueller-Hinton Broth, 37° C., 20 to 24 hours
Outline: as §1

P. aeruginosa KM 97-5 [3] = assay: Antibacterial activity test (MIC); assay type: cell-based; settings: Mueller-Hinton Broth, 37° C., 20 to 24 hours
Outline: as §1

P. aeruginosa No. 12 [4] = assay: Antibacterial activity test (MIC); assay type: cell-based; settings: Mueller-Hinton Broth, 37° C., 20 to 24 hours
Outline: as §1

MRSA KM 97-53 [5] = assay: Antibacterial activity test (MIC); assay type: cell-based, methicillin-resistant Staphylococcus aureus; settings: Mueller-Hinton Broth, 37° C., 20 to 24 hours
Outline: as §1

MRSA KM 97-108 [6] = assay: Antibacterial activity test (MIC); assay type: cell-based, methicillin-resistant Staphylococcus aureus; settings: Mueller-Hinton Broth, 37° C., 20 to 24 hours
Outline: as §1

MRSA 97-115 [7] = assay: Antibacterial activity test (MIC); assay type: cell-based, methicillin-resistant Staphylococcus aureus; settings: Mueller-Hinton Broth, 37° C., 20 to 24 hours
Outline: as §1

MRSA KM 97-53 [8] = assay: Bactericidal activity test (MBC, phenol coefficient measuring method); assay type: cell-based, methicillin-resistant Staphylococcus aureus
Outline: (§2)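 MBC (μg/ml) is the lowest concentration showing no growth in at least two of three runs. Exposure of a 1×10^7/ml saline suspension to serially halved compound dilutions lasted 1, 3 or 5 min before subculture in heart infusion bouillon, 37° C, 40–48 h.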

MRSA KM 97-108 [9] = assay: as above; assay type: cell-based, methicillin-resistant Staphylococcus aureus
Outline: as §2

MRSA 97-115 [10] = assay: as above; assay type: cell-based, methicillin-resistant Staphylococcus aureus
Outline: as §2

VRE 49 [11] = assay: Antibacterial activity test (MIC); assay type: cell-based, vancomycin-resistant enterococci; settings: Mueller-Hinton Broth, 37° C., 20 to 24 hours
Protocol: Regarding compounds obtained in respective Working Examples, in order to investigate antibacterial activity, minimal inhibitory concentration (MIC) was determined according to a standard method of Japanese Society of Chemotherapy.
As a test bacterium, nine kinds of S. aureus 209PJC, MRSA 97-115, MRSA KM 97-53, MRSA KM97-108, VRE 49, E. coli NIHJ JC-2, P. aeruginosa PAO-1, P. aeruginosa No. 12, P. aeruginosa KM97-5 were used and, as a medium, Mueller-Hinton Broth (DIFCO) was used. One platinum loop of a test bacterium was inoculated into 20 ml of a medium, and static culture was carried out at 37° C. for 16 to 20 hours, and then each bacterium species was diluted with a sterilized physiological saline to 10^5/ml, which was used as a test bacterium solution.
Then, each compound was dissolved in methanol, subjected to ½ stepwise dilution with a medium to prepare a medium for measuring sensitivity, and each 2 ml was dispensed into a test tube. A compound concentration in a medium was adjusted to 100 μg/ml and its 2^n-fold (n=−10 to 1).
Numerical values in Tables represent MIC expressed in μg/ml unit.

VRE 49 [12] = assay: Bactericidal activity test (MBC, phenol coefficient measuring method); assay type: cell-based, vancomycin-resistant enterococci
Protocol: As a test bacterium, the same bacteria species as those of the antibacterial activity test were used; as a medium to be used, a SCD medium (manufactured by Eiken Chemical Co., Ltd.) was used for pre-culture medium; and a heart infusion bouillon medium (manufactured by Eiken Chemical Co., Ltd.) was used as a medium for growing a live bacterium in a test solution after bactericidal treatment. One platinum loop of a test bacterium was inoculated into 20 ml of a medium, and static culture was carried out at 37° C. for 18 to 20 hours, and the cells were adjusted with a sterilized physiological saline to 1×10^7/ml, which was used as a test bacterium solution.
Then, a solution of each compound in methanol was subjected to ½ stepwise dilution with sterilized water, each 5 ml was dispensed into a test tube, 0.5 ml of the previously prepared test bacterium solution was added thereto, and the mixture was blended well. After 1 minute, 3 minutes and 5 minutes has passed, 5 μl of the test solution was collected and inoculated into 2 ml of a heart infusion bouillon medium, this was cultured at 37° C. for 40 to 48 hours, and the presence or absence of growth of a bacterium was determined. A test was performed three times, a minimum concentration at which growth of a bacterium was not recognized two or more times was adopted as a minimal bactericidal concentration (MBC value).
Numerical values in Tables represent MBC expressed in μg/ml unit.

S. aureus 209PJC [13] = assay: as above; assay type: cell-based
Outline: as §2

E. coli NIHJ JC-2 [14] = assay: as above; assay type: cell-based
Outline: as §2

P. aeruginosa KM 97-5 [15] = assay: as above; assay type: cell-based
Outline: as §2

P. aeruginosa No. 12 [16] = assay: as above; assay type: cell-based
Outline: as §2

P. aeruginosa PAO-1 [17] = assay: Antibacterial activity test (MIC); assay type: cell-based; settings: Mueller-Hinton Broth, 37° C., 20 to 24 hours
Outline: as §1

P. aeruginosa PAO-1 [18] = assay: Bactericidal activity test (MBC, phenol coefficient measuring method); assay type: cell-based
Outline: as §2

SMILES | minimal inhibitory concentration (MIC) (S. aureus 209PJC [1]) [µg/mL] | minimal inhibitory concentration (MIC) (E. coli NIHJ JC-2 [2]) [µg/mL] | minimal inhibitory concentration (MIC) (P. aeruginosa KM 97-5 [3]) [µg/mL] | minimal inhibitory concentration (MIC) (P. aeruginosa No. 12 [4]) [µg/mL] | minimal inhibitory concentration (MIC) (MRSA KM 97-53 [5]) [µg/mL] | minimal inhibitory concentration (MIC) (MRSA KM 97-108 [6]) [µg/mL] | minimal inhibitory concentration (MIC) (MRSA 97-115 [7]) [µg/mL] | minimal bactericidal concentration (MBC) (MRSA KM 97-53 [8]; 1 min) [µg/mL] | minimal bactericidal concentration (MBC) (MRSA KM 97-53 [8]; 3 min) [µg/mL] | minimal bactericidal concentration (MBC) (MRSA KM 97-53 [8]; 5 min) [µg/mL] | minimal bactericidal concentration (MBC) (MRSA KM 97-108 [9]; 1 min) [µg/mL] | minimal bactericidal concentration (MBC) (MRSA KM 97-108 [9]; 3 min) [µg/mL] | minimal bactericidal concentration (MBC) (MRSA KM 97-108 [9]; 5 min) [µg/mL] | minimal bactericidal concentration (MBC) (MRSA 97-115 [10]; 1 min) [µg/mL] | minimal bactericidal concentration (MBC) (MRSA 97-115 [10]; 3 min) [µg/mL] | minimal bactericidal concentration (MBC) (MRSA 97-115 [10]; 5 min) [µg/mL] | minimal inhibitory concentration (MIC) (VRE 49 [11]) [µg/mL] | minimal bactericidal concentration (MBC) (VRE 49 [12]; 1 min) [µg/mL] | minimal bactericidal concentration (MBC) (VRE 49 [12]; 3 min) [µg/mL] | minimal bactericidal concentration (MBC) (VRE 49 [12]; 5 min) [µg/mL] | further results
N=C(NCCCCCCNC(=N)NC(=N)Nc1ccc(Cl)cc1)NC(=N)Nc1ccc(Cl)cc1.O=C(O)[C@H](O)[C@@H](O)[C@H](O)[C@H](O)CO.O=C(O)[C@H](O)[C@@H](O)[C@H](O)[C@H](O)CO [Control drug, chlorhexidine gluconate, reference compound] | 0.2 | 1.6 | 12.5 | 12.5 | 3.1 | 3.1 | 3.1 | 500 | 250 | 250 | 500 | 500 | 500 | 1000 | 250 | 125 | 3.1 | >1000 | >1000 | >1000 | minimal bactericidal concentration (MBC) (S. aureus 209PJC [13]; 1 min): 62.5 µg/mL; minimal bactericidal concentration (MBC) (S. aureus 209PJC [13]; 3 min): 62.5 µg/mL; minimal bactericidal concentration (MBC) (S. aureus 209PJC [13]; 5 min): 62.5 µg/mL; minimal bactericidal concentration (MBC) (E. coli NIHJ JC-2 [14]; 1 min): 62.5 µg/mL; minimal bactericidal concentration (MBC) (E. coli NIHJ JC-2 [14]; 3 min): 31.3 µg/mL; minimal bactericidal concentration (MBC) (E. coli NIHJ JC-2 [14]; 5 min): 15.6 µg/mL; minimal bactericidal concentration (MBC) (P. aeruginosa KM 97-5 [15]; 1 min): 31 µg/mL; minimal bactericidal concentration (MBC) (P. aeruginosa KM 97-5 [15]; 3 min): 16 µg/mL; minimal bactericidal concentration (MBC) (P. aeruginosa KM 97-5 [15]; 5 min): 8 µg/mL; minimal bactericidal concentration (MBC) (P. aeruginosa No. 12 [16]; 1 min): 125 µg/mL; minimal bactericidal concentration (MBC) (P. aeruginosa No. 12 [16]; 3 min): 32 µg/mL; minimal bactericidal concentration (MBC) (P. aeruginosa No. 12 [16]; 5 min): 32 µg/mL
CC(=O)O.CCCCCCCCCNC1=NC(C)(C)N=C(NCc2ccccc2)N1 [compound 48] | 0.8 | 12.5 | 25 | 25 | 0.8 | 1.6 | 1.6 | 50 | 25 | 25 | 50 | 50 | 25 | 12.5 | 6.3 | 6.3 | 0.8 | 25 | 12.5 | 12.5 | minimal inhibitory concentration (MIC) (P. aeruginosa PAO-1 [17]): 12.5 µg/mL; minimal bactericidal concentration (MBC) (S. aureus 209PJC [13]; 1 min): 12.5 µg/mL; minimal bactericidal concentration (MBC) (S. aureus 209PJC [13]; 3 min): 6.3 µg/mL; minimal bactericidal concentration (MBC) (S. aureus 209PJC [13]; 5 min): 6.3 µg/mL; minimal bactericidal concentration (MBC) (E. coli NIHJ JC-2 [14]; 1 min): 6.3 µg/mL; minimal bactericidal concentration (MBC) (E. coli NIHJ JC-2 [14]; 3 min): 6.3 µg/mL; minimal bactericidal concentration (MBC) (E. coli NIHJ JC-2 [14]; 5 min): 3.1 µg/mL; minimal bactericidal concentration (MBC) (P. aeruginosa KM 97-5 [15]; 1 min): 3.1 µg/mL; minimal bactericidal concentration (MBC) (P. aeruginosa KM 97-5 [15]; 3 min): 3.1 µg/mL; minimal bactericidal concentration (MBC) (P. aeruginosa KM 97-5 [15]; 5 min): 3.1 µg/mL; minimal bactericidal concentration (MBC) (P. aeruginosa No. 12 [16]; 1 min): 25 µg/mL; minimal bactericidal concentration (MBC) (P. aeruginosa No. 12 [16]; 3 min): 12.5 µg/mL; minimal bactericidal concentration (MBC) (P. aeruginosa No. 12 [16]; 5 min): 12.5 µg/mL; minimal bactericidal concentration (MBC) (P. aeruginosa PAO-1 [18]; 1 min): 6.3 µg/mL; minimal bactericidal concentration (MBC) (P. aeruginosa PAO-1 [18]; 3 min): 3.1 µg/mL; minimal bactericidal concentration (MBC) (P. aeruginosa PAO-1 [18]; 5 min): 3.1 µg/mL
